# Source: US11241427B2, “Small molecule modulators of NR2F6 activity” (Regen Biopharma, Inc., priority 2015, dated 2022)
# Read-outs that look alike come from different tables or passages of the source.
# Molecular target: T1, NR2F6 (ligand binding domain, amino acids 163-404) (Homo sapiens, UniProt P10588)
# T1 construct: HIS (N, cleaved yes); FLAG (N, cleaved yes); TEV site (N, cleaved yes); made in house; host or cells: E. coli BL21 (DE3)
# T1 sequence (P10588 163-404): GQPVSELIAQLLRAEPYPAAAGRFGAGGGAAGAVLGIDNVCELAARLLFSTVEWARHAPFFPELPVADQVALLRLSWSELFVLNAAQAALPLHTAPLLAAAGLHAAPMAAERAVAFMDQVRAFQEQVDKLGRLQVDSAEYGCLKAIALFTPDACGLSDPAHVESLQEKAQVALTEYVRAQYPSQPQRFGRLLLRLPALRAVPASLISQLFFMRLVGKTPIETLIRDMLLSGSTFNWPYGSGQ
# Experiment: Thermoshift analysis (TSA) of compound binding to NR2F6
# Conditions: for Tm: NR2F6 alone Tm 48 °C
# Description: The binding interaction between target protein NR2F6 and 139 compounds selected from an in silico screen was assessed using thermoshift analysis (TSA). Thermoshift is a physical technique used to determine the melting temperature of a protein. The interaction of the ligand to the folded state of the protein shifts the melting temperature. In the experimental system used, the NR2F6 protein is mixed with the ligand and the fluorescent dye SYPRO Orange®. The fluorescence is monitored over temperature gradient between 20 and 95° C. with 0.5° C. increment. The dye binds to the hydrophobic regions of molten globules and denatured proteins resulting in an increase of fluorescence. A plot of the fluorescence is obtained and used to determine the melting temperature in absence and presence of ligand.
# The ligand binding domain of NR2F6 (amino acids 163-404) was cloned for soluble expression in E. coli with an N-terminal HIS-FLAG-TEV-tag. Expression was performed in BL21 (DE3) cells. In brief, a 12L E. coli culture was induced with IPTG in logarithmic phase and further incubated over night at 18° C. Cells were harvested via centrifugation, washed with buffer and stored at […] until purification.
# The purification procedure performed consists of HIS affinity chromatography, tag cleavage, negative affinity chromatography, size exclusion chromatography and ion exchange chromatography.
# Thermoshift analysis was performed on 139 Compounds that were stored as powder in DMSO stocks. A reaction volume of 25 μl was used, with reaction temperatures being increased in 0.5 increments from 20-95° C. in 96 well, PCR plates (Hard-Shell®, HSP-9655). The control was NR2F6 protein alone in 1% DMSO. For performing the reaction, a reaction buffer comprising of the following was utilized: 20 mM HEPES pH 6.85, 150 mM NaCl, 10% Glycerin and 0.5 mM TCEP.
# The following pipetting sequence was used: 1) Add appropriate volume of target enzyme in reaction buffer; 2) Add appropriate volume of dye SYPRO Orange® in reaction buffer; 3) Add inhibitor in 100% DMSO (1% final DMSO conc); 4) Measure fluorescence
# Fluorescence was quantified using a CFX Connect™ Real-Time PCR Detection System (BioRad)
# An increase in melting temperature is indicative for compound binding.
# [1] = Table 1.1, 100 μM compound, 0.5 mg/ml NR2F6, 1% DMSO
# [2] = Table 1.1, 100 μM compound, shift versus NR2F6 alone (Tm 48 °C)
# [3] = Table 1.1, 100 μM compound, shift versus NR2F6 alone (Tm 48 °C), read-out: delta Tm
SMILES,Tm [1],delta Tm [2],"Tm (Table 1.2, 100 μM compound)",ΔTm at 100 µM [3],ΔTm at 100 µM
"CC(C)=CCC/C(C)=C/CC/C(C)=C/CC/C(C)=C/CO [Cpd 88, Geranylgeranoil]",47.5 °C,−0.5 °C,–,–,–
"C[C@H](CCC(=O)NCC(=O)O)[C@H]1CC[C@H]2[C@@H]3[C@H](O)C[C@@H]4C[C@H](O)CC[C@]4(C)[C@H]3C[C@H](O)[C@]12C [Cpd 63, Glycochalic acid]",48 °C,0 °C,–,–,–
"CC1=C(/C=C/C(C)=C/C=C/C(C)=C/C(=O)Nc2ccc(O)cc2)C(C)(C)CCC1 [Cpd 43, 4-Hydroxyphenylretinamide]",–,–,50 °C,–,–
"N[C@@H](Cc1cc(I)c(Oc2ccc(O)cc2)c(I)c1)C(=O)O [Cpd 80, 3,5-Diiodo-L-thyroine]",48.5 °C,0.5 °C,–,–,–
"CC1(COc2ccc(CC3SC(=O)NC3=O)cc2)CCCCC1 (stereo not shown) [Cpd 72, Ciglitazone]",–,–,–,-0.5 °C,–
"Cc1ccc(C)c(OCCCC(C)(C)C(=O)O)c1 [Cpd 68, Gemfibrozil]",47.5 °C,–,–,-0.5 °C,–
"CCCCCC=CCC=CCC=CCC=CCCCC(=O)O [Cpd 84, 5,8,11,14-Eicosatetranoic acid]",46.5 °C,−1.5 °C,–,–,–
CCN(CC)S(=O)(=O)c1cccc(NC(=O)CNc2cccc(S(=O)(=O)N3CCCC3)c2)c1 [Cpd 133],49 °C,–,49 °C,1 °C,–
"C[C@H](CCC(=O)NCCS(=O)(=O)O)[C@H]1CC[C@H]2[C@@H]3[C@H](O)C[C@@H]4C[C@H](O)CC[C@]4(C)[C@H]3C[C@H](O)[C@]12C [Cpd 75, Taurocholic acid]",47.5 °C,–,–,–,-0.5 °C
"CC(=O)[C@H]1CC[C@H]2[C@@H]3CC=C4C[C@@H](O)CC[C@]4(C)[C@H]3CC[C@]12C [Cpd 71, Pregnenoione]",48 °C,0 °C,–,–,–
"Clc1ccc(-c2nc3sccn3c2/C=N/OCc2ccc(Cl)c(Cl)c2)cc1 [Cpd 85, CITCO]",48 °C,0 °C,–,–,–
"Cc1c(C)c2c(c(C)c1O)CCC(C)(COc1ccc(CC3SC(=O)NC3=O)cc1)O2 (stereo not shown) [Cpd 79, Troglitazone]",–,–,–,0 °C,–
CC(=O)c1c(C)[nH]c(C(=O)OCC(=O)Nc2ccc(Cl)cc2[N+](=O)[O-])c1C [Cpd 139],48.5 °C,0.5 °C,–,–,–
"CC/C=C\C/C=C\C/C=C\C/C=C\C/C=C\C/C=C\CCC(=O)O [Cpd 89, Docosa-4Z,7Z,10Z,13Z,16Z,19Z-hexaenoic acid]",47.5 °C,–,–,-0.5 °C,–
CC(=O)c1c(C)[nH]c(C(=O)OCCCCN2C(=O)c3ccccc3C2=O)c1C [Cpd 121],48 °C,0 °C,–,–,–
CCN(CC)S(=O)(=O)c1ccc(/C=C/C(=O)Nc2ccc(Br)cc2F)cc1 [Cpd 117],48.5 °C,0.5 °C,–,–,–
COc1ccc(NS(=O)(=O)c2cccc(NC(=O)c3ccc(Cl)nc3)c2)cc1 [Cpd 116],47.5 °C,−0.5 °C,–,–,–
"C/C=C1\C(=O)C[C@H]2[C@@H]3CCC4=CC(=O)CC[C@]4(C)[C@H]3CC[C@]12C [Cpd 64, Z-Guggulsterone]",46 °C,−2 °C,–,–,–
"CC(C)(Sc1ccc(CCN(CCCCC2CCCCC2)C(=O)NC2CCCCC2)cc1)C(=O)O [Cpd 74, GW 7647]",45.5 °C,–,–,-2.5 °C,–
O=C(Nc1ccncc1)c1ccc(Cl)c(S(=O)(=O)N2CCc3ccccc32)c1 [Cpd 132],47.5 °C,−0.5 °C,–,–,–
Cc1cc(-n2c(C)cc(C(=O)CSc3ncnc4ccccc34)c2C)no1 [Cpd 122],47.5 °C,−0.5 °C,–,–,–
Clc1ccc(OCCN2CCN(c3ncnc4sccc34)CC2)cc1 [Cpd 120],46.5 °C,−1.5 °C,–,–,–
COc1ccc(/C=N/OCC(=O)NC(c2ccccc2)c2ccccc2)cc1OC [Cpd 138],46 °C,−2 °C,–,–,–
"C=C1/C(=C\C=C2/CCC[C@]3(C)[C@@H]([C@H](C)CCCC(C)(C)O)CC[C@@H]23)C[C@@H](O)C[C@@H]1O [Cpd 83, 1a,25-Dihydroxyvitamin D3]",46.5 °C,−1.5 °C,–,–,–

SMILES,Tm [1],delta Tm [2],"Tm (Table 1.2, 100 μM compound)",ΔTm at 100 µM [3],ΔTm at 100 µM
"O=C(Nc1ccccc1)c1cc([N+](=O)[O-])ccc1Cl [Cpd 62, GW 9662]",48 °C,0 °C,–,–,–
"CC(C)(Oc1ccc(CCNC(=O)c2ccc(Cl)cc2)cc1)C(=O)O [Cpd 61, Bezafibrate]",–,–,–,0 °C,–
"O=Cc1c2c(cc3c1=Nc1ccccc1-3)=Nc1ccccc1-2 [Cpd 17, 6-Formylindolo [3,2-B] carbazole]",–,–,50 °C,–,–
COc1ccc(CNc2ncnc3ccccc23)cc1 [Cpd 126],47.5 °C,−0.5 °C,–,–,–
N#CCSc1nnc(-c2sc3ccccc3c2Cl)o1 [Cpd 128],48 °C,0 °C,–,–,–
"CCCCC/C=C/C=C1/C(=O)C=C[C@@H]1C/C=C\CCCC(=O)O [Cpd 73, 15-Deoxy-D12,14-prostaglandin J2]",48 °C,0 °C,–,–,–
"N[C@@H](Cc1cc(I)c(O)c(I)c1)C(=O)O [Cpd 86, 3,5-Diiodo-L-tyrosine]",50 °C,–,50 °C,–,2 °C
"CO[C@H]1/C=C/O[C@@]2(C)Oc3c(C)c(O)c4c(O)c(c(/C=N/N5CCN(C)CC5)c(O)c4c3C2=O)NC(=O)/C(C)=C\C=C\[C@H](C)[C@H](O)[C@@H](C)[C@@H](O)[C@@H](C)[C@H](OC(C)=O)[C@@H]1C [Cpd 87, Rifampicin]",49.5 °C,–,49.5 °C,1.5 °C,–
COc1ccc(CN(C)c2ccc(S(=O)(=O)N3CCN(C)CC3)cc2[N+](=O)[O-])cc1OC [Cpd 129],47.5 °C,−0.5 °C,–,–,–
"C[C@H](CCC(=O)NCCS(=O)(=O)O)[C@H]1CC[C@H]2[C@@H]3CC[C@@H]4C[C@H](O)CC[C@]4(C)[C@H]3C[C@H](O)[C@]12C [Cpd 81, Taurodeoxycholic acid]",47.5 °C,–,–,-0.5 °C,–
CC(=O)c1ccc(N2CCN(C(=S)Nc3ccc(Oc4ccccc4)cc3)CC2)cc1 [Cpd 131],47.5 °C,−0.5 °C,–,–,–
"CCCc1c(OCCCCc2nnn[nH]2)ccc(C(C)=O)c1O [Cpd 67, LY 171883]",46.5 °C,–,–,-1.5 °C,–
CCN=c1scc(-c2ccc3c(c2)NC(=O)CO3)n1N=C1CCCC1 [Cpd 137],48 °C,0 °C,–,–,–
Cc1ccc(F)cc1NC(=O)Cc1nn(C)c(=O)c2ccccc12 [Cpd 135],47.5 °C,−0.5 °C,–,–,–
Cc1nn(C)c(C)c1NC(=O)COc1ccc(Cl)cc1Br [Cpd 127],47.5 °C,−0.5 °C,–,–,–
c1ccc(CNc2ncnc3ccccc23)cc1 [Cpd 134],47.5 °C,−0.5 °C,–,–,–
CC(=O)c1c(C)[nH]c(C(=O)COc2cc(C)ccc2C(C)C)c1C [Cpd 125],47.5 °C,−0.5 °C,–,–,–
CCCCCCn1c(NCC)nc2c1c(=O)n(C)c(=O)n2C [Cpd 130],47.5 °C,−0.5 °C,–,–,–
"CC(C)c1onc(-c2c(Cl)cccc2Cl)c1COc1ccc(/C=C/c2cccc(C(=O)O)c2)c(Cl)c1 [Cpd 82, GW4064]",35 °C,−13 °C,–,–,–
"C[C@]12CC[C@@H]3c4ccc(O)cc4CC[C@H]3[C@@H]1CC[C@@H]2O [Cpd 65, 17b-Estradiol]",47 °C,−1 °C,–,–,–
CCN(CC)S(=O)(=O)c1cccc(NC(=O)COC(=O)c2[nH]c(C)c(C(C)=O)c2C)c1 [Cpd 123],47.5 °C,−0.5 °C,–,–,–
"CC(CCC(=O)NCC(=O)O)C1CCC2C3CCC4CC(O)CCC4(C)C3CC(O)C12C (stereo not shown) [Cpd 69, Glycodeoxycholic acid]",46.5 °C,–,–,-1.5 °C,–
"Cc1cccc(Nc2cc(Cl)nc(SCC(=O)O)n2)c1C [Cpd 66, WY-14643]",47.5 °C,–,–,-0.5 °C,–
S=C(NCCc1ccccc1)Nc1cccc2cnccc12 [Cpd 136],47.5 °C,−0.5 °C,–,–,–
